Results: US5278181A, “Soluble alkyl[5-[amino (phenyl)methyl]-1H-benzimidazol-2-yl] carbamate anthelmintics” (priority 1992, dated 1994)
In brackets after ≈: the same amount, converted by molar mass. Several values for one entry are separate records, joined by “and”; a condition that tells them apart may be missing. Identical values can stand only once.

Assays:
[1] = test system: microfilariae; conditions: background art; cited from earlier work
[2] = test system: adult worms; conditions: background art; cited from earlier work
[3] = test system: Brugia pahangi; test: Antifilarial dual infection screen in jirds: adult B. pahangi burden; format: in vivo, in Mongolian jirds; conditions: day 56
Text: (§1) Dual infections of the filarial worms Brugia pahangi and Acanthocheilonema viteae in jirds are used routinely for antifilarial screening [McCall, J. W., McTier, T. L., and Rowan, S. J., "In vivo models for evaluating potential antifilarial agents", Onchocerciasis/Filariasis (Proceedings of a Symposium sponsored by the World Health Organization), Kalamazoo, Mich., Apr. 8-10, 23-24 (1986)].
(§2) For this dual infection screen, male Mongolian jirds weighing 50-60 g are infected SC with 10 (5 male and 5 female) adult A. viteae, transplanted under sodium pentobarbital anesthesia (48 mg/kg) from donor hamsters infected SC 8 weeks earlier. Two weeks later, 20 (10 male and 10 female) adult B. pahangi, taken from donor jirds infected IP 8 weeks earlier, are transplanted into the peritoneal cavity of each jird under sodium pentobarbital anesthesia. After an additional week, when the jirds have acceptable levels of microfilaremia, they are randomly allocated to treatment groups of 3 animals each and a nontreated group of 4-6 animals. Microfilaremia is determined on days 0 (just prior to the first dose), 4 and 56 post-treatment. Unless indicated otherwise, compounds are suspended in hydroxyethylcellulose (0.5%) - Tween 80 (0.1%) and administered SC at 100 mg/kg/day for 5 consecutive days. All jirds are killed on day 56 post-treatment to determine the effects of drugs on adults of A. viteae and B. pahangi. Live worms are identified as to species, noted as to sex, and counted. The number of dead and/or encapsulated worms is also recorded. A reduction of ≥80% in microfilaremia or ≥50% in adult worm burden (either species) compared with pre-treatment microfilaremia or non-treated control worm burden, respectively, is considered to be significant. For secondary testing with this dual infection screen, groups of 7 animals each are used. For oral dosing, drugs are dissolved or suspended in hydroxyethylcellulose - Tween 80 and administered by gavage.

[4] = test system: B. pahangi and A. viteae; test: Antifilarial activity in jirds, dual infection, summary in words; format: in vivo; conditions: both oral and parenteral routes
Text: as §1
For this dual infection screen, male Mongolian jirds weighing 50-60 g are infected SC with 10 (5 male and 5 female) adult A. viteae, transplanted under sodium pentobarbital anesthesia (48 mg/kg) from donor hamsters infected SC 8 weeks earlier. Two weeks later, 20 (10 male and 10 female) adult B. pahangi, taken from donor jirds infected IP 8 weeks earlier, are transplanted into the peritoneal cavity of each jird under sodium pentobarbital anesthesia. After an additional week, when the jirds have acceptable levels of microfilaremia, they are randomly allocated to treatment groups of 3 animals each and a nontreated group of 4-6 animals. Microfilaremia is determined on days 0 (just prior to the first dose), 4 and 56 post-treatment. […] Live worms are identified as to species, noted as to sex, and counted. The number of dead and/or encapsulated worms is also recorded. […]

[5] = Aqueous solubility; conditions: water
[6] = test system: Brugia pahangi; test: Antifilarial effect in beagle dogs infected with Brugia pahangi; format: in vivo
Text: The infective larvae of B. pahangi were produced and collected as described by McCall [J. Georgia Entomol. Soc. 16:283-293, (1981)]. The dogs were given 100 L3 of B. pahangi by subcutaneous injection (SC) into the dorsum of each hind paw or 200 L3 in one hind paw (i.e., a total inoculum of 200 L3 per dog).
The dogs were randomly allocated to treatment groups containing 4 dogs. The dogs were divided by sex and ranked by declining baseline microfilarial counts (average count based on the 5 bleedings made before the day of treatment). Those dogs which were amicrofilaremic or had very few microfilariae were excluded from the trial. Of the remaining dogs, those with the highest baseline microfilaremias were assigned to seven-dog replicates. The sex of the dogs within three of the replicates was the same, while the fourth replicate contained dogs of both sexes. The dogs of a given sex with the highest levels of microfilaremia were placed in the same replicate. The next set of dogs of that sex with the next highest levels of microfilaremia was assigned to the next replicate, and so on until all of the replicates were filled. The dogs within each complete replicate were assigned to test groups using a table of random numbers [Ostle and Mensing, Statistics in Research, Third Edition, Iowa State University Press, Ames, Iowa, pp. 560-563, (1975)]. The test groups were likewise assigned to either control or treatment groups using the table of random numbers.
The first day of treatment, day 0, was approximately 144 days after infection. Drugs were administered orally as a 10% suspension in HEC-Tween 80 or in soft gelatin capsules. Drugs were administered intramuscularly or subcutaneously as a 10% suspension in peanut oil or in HEC-Tween 80. Groups of four dogs served in sham-treated controls in each experiment. All of the treatments were given by IM injection in the dorsal lumbar muscles.
(§3) All dogs were observed frequently during each day of treatment and daily throughout the remainder of the study for any signs of reactions. In addition, the hair was shaved at the injection sites to facilitate the observation of possible tissue irritation resulting from treatment.
Blood was collected from each dog on days 51, 43, 27, 19, and 5 before treatment to determine baseline microfilaremias and allocate the dogs to treatment groups. Blood was then collected from all dogs on the day before treatment on day -1, on days 7, 10, 14, 21, 28, 35, 42, 49, and 56 days after treatment. All bleedings were done at approximately the same time of day (11:00-12:00 E.S.T.). Two 20-μl blood films were prepared from each sample and stained with giemsa. Microfilarial counts were made from the 2 blood films.
The dogs were euthanized for necropsy either two or six months after the first day of treatment. Just prior to euthanasia, the dogs were given a subcutaneous injection (SC) of a two percent solution of Evans blue into the dorsum of both hind paws in order to help delineate the lymphatic vessels. This was followed at least 30 minutes later with a lethal dose of Fatal-Plus® (Vortech Pharmaceuticals, Dearborn, Mich.). A limited necropsy was performed on each dog with examination of the afferent and efferent lymphatics of both hindlimbs and the popliteal, inguinal, internal and external iliac, and lumbar lymph nodes. Any live or dead worms seen were removed. These vessels and lymph nodes were removed, teased, and soaked overnight in normal saline to allow any worms to migrate out of the tissues. The condition of the worms, their sex and number, and the location from which they were recovered were noted.
Effectiveness against the adult parasites was determined as follows: [formula] Effectiveness against microfilariae for a given day after treatment was determined as follows: [formula]
The adult B. pahangi counts and the microfilarial counts were compared using a one way analysis of variance (ANOVA). […]

[7] = Local muscle irritation at injection site in beagle dogs; format: in vivo; conditions: IM, 12.5-50 mg/kg/day for 2 to 3 days
Text: as §3

[8] = test system: Acanthocheilonema viteae; test: Antifilarial dual infection screen in jirds: adult A. viteae burden and microfilaremia; format: in vivo, in Mongolian jirds; conditions: for % Macrofilarial reduction, A. viteae: day 56
Text: as §1, §2

[9] = background art; cited from earlier work
[10] = background art; cited from earlier work; remark: listed apart in the source
[11] = IM, 6.25 mg/kg/day × 3, peanut oil
[12] = IM, 12.5 mg/kg/day × 3, peanut oil
[13] = IM, 25 mg/kg/day × 3, peanut oil
[14] = IM, 50 mg/kg/day × 1, peanut oil
[15] = IM, 50 mg/kg/day × 2, peanut oil
[16] = IM, 50 mg/kg/day × 3, peanut oil
[17] = PO, 200 mg/kg/day bid × 3, HEC-Tween 80
[18] = SC, 50 mg/kg/day × 3, HEC-Tween 80

SMILES: CC[C@H](C)[C@H]1O[C@]2(CC[C@@H]1C)C[C@@H]1C[C@@H](C/C=C(\C)[C@@H](O[C@H]3C[C@H](OC)[C@@H](O[C@H]4C[C@H](OC)[C@@H](O)[C@H](C)O4)[C@H](C)O3)[C@@H](C)/C=C/C=C3\CO[C@@H]4[C@H](O)C(C)=C[C@@H](C(=O)O1)[C@]34O)O2 [ivermectin]
- activity against microfilariae [1]: outstanding activity against microfilariae
- activity against adult worms (macrofilaricidal) [2]: without effect on adult worms

SMILES: COC(=O)Nc1nc2cc(C(N)c3ccc(F)cc3)ccc2[nH]1 (racemic) [Example 1, Methyl (±)-[5-[Amino(4-Fluorophenyl)Methyl]-1H-Benzimidazol-2-yl]Carbamate]
- % Macrofilarial reduction, B. pahangi ([3]; 1.56 mg/kg/day × 5 days, SC): 16%
- % Macrofilarial reduction, B. pahangi ([3]; 6.25 mg/kg/day × 5 days, SC): 92%
- % Macrofilarial reduction, B. pahangi ([3]; 12.5 mg/kg/day × 5 days, SC): 100%
- % Macrofilarial reduction, B. pahangi ([3]; 25 mg/kg/day × 5 days, SC): 100%
- antifilarial activity in jirds [4]: outstanding antifilarial activity
- solubility [5]: 180 µg/mL (≈ 573 µM)
- Dogs cured/Treated [6, 11]: 0/4
- Percent reduction Macrofilariae [6, 11]: 38%
- Percent reduction Microfilariae [6, 11]: 50%
- Dogs cured/Treated [6, 12]: 1/4
- Percent reduction Macrofilariae [6, 12]: 91%
- Percent reduction Microfilariae [6, 12]: 76%
- Dogs cured/Treated [6, 13]: 4/4
- Percent reduction Macrofilariae [6, 13]: 100%
- Percent reduction Microfilariae [6, 13]: 72%
- Dogs cured/Treated [6, 14]: 0/4
- Percent reduction Macrofilariae [6, 14]: 85%
- Percent reduction Microfilariae [6, 14]: 55%
- Dogs cured/Treated [6, 15]: 2/4
- Percent reduction Macrofilariae [6, 15]: 92%
- Percent reduction Microfilariae [6, 15]: 59%
- Dogs cured/Treated [6, 16]: 4/4
- Percent reduction Macrofilariae [6, 16]: 100%
- Percent reduction Microfilariae ([6]; IM, 50 mg/kg/day × 3, peanut oil, 50 mg/kg/day): 100% and 99%
- cure of B. pahangi infections ([6]; IM, 12.5-50 mg/kg/day for 2 to 3 days): cured dogs of B. pahangi infections
- Percent reduction Macrofilariae [6, 17]: 93%
- Percent reduction Microfilariae [6, 17]: 97%
- Dogs cured/Treated ([6]; PO, 200 mg/kg/day bid × 3, HEC-Tween 80, necropsied 6 months): 1/3
- Dogs cured/Treated [6, 18]: 1/4
- Percent reduction Macrofilariae [6, 18]: 76%
- Percent reduction Microfilariae [6, 18]: 78%
- cure of B. pahangi infections ([6]; administered orally): also curative when administered orally
- local muscle irritation [7]: no local muscle irritation
- % Microfilarial reduction, A. viteae, Day 4 ([8]; 25 mg/kg/day × 5 days, SC): 0%
- % Macrofilarial reduction, A. viteae ([8]; 25 mg/kg/day × 5 days, SC): 88%

SMILES: Cc1ccc(C(=O)Nc2ccc(S(=O)(=O)O)c3cc(S(=O)(=O)O)cc(S(=O)(=O)O)c23)cc1NC(=O)c1cccc(NC(=O)Nc2cccc(C(=O)Nc3cc(C(=O)Nc4ccc(S(=O)(=O)O)c5cc(S(=O)(=O)O)cc(S(=O)(=O)O)c45)ccc3C)c2)c1 [Suramin]
- activity against adult worms (macrofilaricidal) [2]: macrofilaricidal action

SMILES: COC(=O)Nc1nc2cc(C(N)c3ccccc3)ccc2[nH]1 (racemic) [Example 3, Methyl (±)-[5-[Amino (Phenyl)Methyl]-1H-Benzimidazol-2-yl]Carbamate]
- % Macrofilarial reduction, B. pahangi ([3]; 1.56 mg/kg/day × 5 days, SC): 23%
- % Macrofilarial reduction, B. pahangi ([3]; 6.25 mg/kg/day × 5 days, SC): 0%
- % Macrofilarial reduction, B. pahangi ([3]; 25 mg/kg/day × 5 days, SC): 75%
- % Macrofilarial reduction, B. pahangi ([3]; 100 mg/kg/day × 5 days, SC): 100%
- % Macrofilarial reduction, B. pahangi ([3]; 100 mg/kg/day × 5 days, oral): 52%
- % Microfilarial reduction, A. viteae, Day 4 ([8]; 100 mg/kg/day × 5 days, oral): 83%
- % Microfilarial reduction, A. viteae, Day 56 ([8]; 100 mg/kg/day × 5 days, oral): 83%
- % Macrofilarial reduction, A. viteae ([8]; 100 mg/kg/day × 5 days, oral): 80%

SMILES: CCN(CC)C(=O)N1CCN(C)CC1 [Diethylcarbamazine]
- activity against microfilariae [1]: has the ability to destroy microfilariae
- activity against adult worms (macrofilaricidal) [2]: kill adults of lymphatic filariae in some, but far from all patients

SMILES: COC(=O)Nc1nc2ccc(C(=O)c3ccccc3)cc2[nH]1 [mebendazole]
- pain and inflammation on injection [9]: cause pain and inflammation on injection
- absorption [10]: poorly absorbed

SMILES: COC(=O)Nc1nc2cc(C(N)c3ccccc3)ccc2[nH]1.Cl.Cl (racemic) [Example 4, Methyl (±)-[5-[Amino (Phenyl)Methyl]-1H-Benzimidazol-2-yl]Carbamate Dihydrochloride Salt]
- % Macrofilarial reduction, B. pahangi ([3]; 3.13 mg/kg/day × 5 days, SC): 15%
- % Macrofilarial reduction, B. pahangi ([3]; 6.25 mg/kg/day × 5 days, SC): 14%
- % Macrofilarial reduction, B. pahangi ([3]; 12.5 mg/kg/day × 5 days, SC): 18%
- % Macrofilarial reduction, B. pahangi ([3]; 100 mg/kg/day × 5 days, oral): 30%
- % Macrofilarial reduction, B. pahangi ([3]; 200 mg/kg/day × 5 days, oral): 100%
- % Microfilarial reduction, A. viteae, Day 4 ([8]; 3.13 mg/kg/day × 5 days, SC): 75%
- % Microfilarial reduction, A. viteae, Day 56 ([8]; 3.13 mg/kg/day × 5 days, SC): 50%
- % Macrofilarial reduction, A. viteae ([8]; 3.13 mg/kg/day × 5 days, SC): 9%
- % Microfilarial reduction, A. viteae, Day 4 ([8]; 6.25 mg/kg/day × 5 days, SC): 67%
- % Microfilarial reduction, A. viteae, Day 56 ([8]; 6.25 mg/kg/day × 5 days, SC): 67%
- % Macrofilarial reduction, A. viteae ([8]; 6.25 mg/kg/day × 5 days, SC): 27%
- % Microfilarial reduction, A. viteae, Day 4 ([8]; 12.5 mg/kg/day × 5 days, SC): 88%
- % Microfilarial reduction, A. viteae, Day 56 ([8]; 12.5 mg/kg/day × 5 days, SC): 50%
- % Macrofilarial reduction, A. viteae ([8]; 12.5 mg/kg/day × 5 days, SC): 31%
- % Microfilarial reduction, A. viteae, Day 4 ([8]; 100 mg/kg/day × 5 days, oral): 91%
- % Microfilarial reduction, A. viteae, Day 56 ([8]; 100 mg/kg/day × 5 days, oral): 91%
- % Macrofilarial reduction, A. viteae ([8]; 100 mg/kg/day × 5 days, oral): 81%
- % Microfilarial reduction, A. viteae, Day 4 ([8]; 200 mg/kg/day × 5 days, oral): 67%
- % Microfilarial reduction, A. viteae, Day 56 ([8]; 200 mg/kg/day × 5 days, oral): 100%
- % Macrofilarial reduction, A. viteae ([8]; 200 mg/kg/day × 5 days, oral): 100%

SMILES: COC(=O)Nc1nc2cc(C(=O)c3ccc(F)cc3)ccc2[nH]1 [Flubendazole, methyl [5-(4-fluorobenzoyl)-1H-benzimidazol-2-yl]carbamate]
- pain and inflammation on injection [9]: cause pain and inflammation on injection
- solubility [5]: 45 µg/mL (≈ 144 µM)
- absorption [10]: poorly absorbed
